Columns and labels:
[1] = test system: inflammatory vitreous opacity due to endotoxin-induced uveitis; test: Endotoxin-induced uveitis (EIU) rabbit model: clinical grading of inflammatory vitreous opacity after DEX injection into the choroid through a tube; format: in vivo; conditions: day 2 after intravitreal LPS 100 ng; DEX solution 100 μg/100 μL injected into the choroid through the tube; 4 eyes; p<0.05 vs control (LPS only)
Description: (§1) In order to investigate the effectiveness of the method for self-treatment of posterior segment eye disease according to an aspect of the present invention, whether the injection of dexamethasone (DEX) into the choroid through a tube suppresses inflammatory vitreous opacity due to endotoxin-induced uveitis was examined in a rabbit model.
All experiments were conducted in accordance with ARVO Statement for the Use of Animals in Ophthalmic and Vision Research and the Guidelines for Experimental Animals at Iwate Medical University. Three-month-old Japanese white rabbits (purchased from KITAYAMALABES CO., LTD.) weighing 2 to 2.5 kg were used. […]
After the tube insertion, endotoxin-induced uveitis (HU) was induced in 8 rabbits (8 eyes) by lipopolysaccharide (LPS) derived from Escherichia coli (manufactured by Sigma-Aldrich Co. LLC). […] Since maximal inflammatory symptoms were seen 2 days after injection, inflammatory vitreous opacity was evaluated 2 days after injection by ophthalmological observation and vitreous humor protein measurement. The amount of DEX injected was entered into the application and the amount of DEX was determined on the computer. The data on the quantity of DEX was then transmitted to a wireless injector (“Tofuty”, manufactured by ICOMES LAB Co., Ltd.). […]

[2] = test system: inflammatory vitreous opacity due to endotoxin-induced uveitis; test: Endotoxin-induced uveitis (EIU) rabbit model: vitreous humor protein measurement; format: in vivo; conditions: day 2 after intravitreal LPS 100 ng; DEX solution 100 μg/100 μL injected into the choroid through the tube; 4 eyes; p<0.05 vs control (LPS only)
Source text: as §1
After the tube insertion, endotoxin-induced uveitis (HU) was induced in 8 rabbits (8 eyes) by lipopolysaccharide (LPS) derived from Escherichia coli (manufactured by Sigma-Aldrich Co. LLC). 100 ng of LPS solution was injected into the vitreous body using a 27G needle at a 12 o'clock position, 3 mm posterior to the corneal limbus. […] Since maximal inflammatory symptoms were seen 2 days after injection, inflammatory vitreous opacity was evaluated 2 days after injection by ophthalmological observation and vitreous humor protein measurement. The amount of DEX injected was entered into the application and the amount of DEX was determined on the computer. The data on the quantity of DEX was then transmitted to a wireless injector (“Tofuty”, manufactured by ICOMES LAB Co., Ltd.). […]
For protein measurements, four eyes in each group were used on day 2 after procedure. […] The protein content of vitreous humor was determined using a Bio-Rad assay kit with bovine serum albumin as a standard-dilution reference curve. […]

C[C@@H]1C[C@H]2[C@@H]3CCC4=CC(=O)C=C[C@]4(C)[C@@]3(F)[C@@H](O)C[C@]2(C)[C@@]1(O)C(=O)CO [DEX, dexamethasone]
Clinical grading of vitreous opacity (grade 0 to 4) [1]: 0.75±0.96
Protein concentration in vitreous humor [2]: 20.5 ± 15.0 mg/mL

Reference: patent US20240023806A1, “METHOD FOR SELF-DIAGNOSIS AND METHOD FOR SELF-TREATMENT OF POSTERIOR SEGMENT EYE DISEASE” (priority 2022, published 2024)
